{"source": "patent US10710978B2", "about": "“STK4 inhibitors for treatment of hematologic malignancies” (Dana-Farber Cancer Institute, Inc., priority 2015, dated 2020)", "assay_in_all_cases": "KiNativ assay", "format_in_all_cases": "binding", "key": {"[1]": {"biological_target": "GPRK5 (Homo sapiens (Human), UniProt P34947)", "sequence (P34947 whole entry)": "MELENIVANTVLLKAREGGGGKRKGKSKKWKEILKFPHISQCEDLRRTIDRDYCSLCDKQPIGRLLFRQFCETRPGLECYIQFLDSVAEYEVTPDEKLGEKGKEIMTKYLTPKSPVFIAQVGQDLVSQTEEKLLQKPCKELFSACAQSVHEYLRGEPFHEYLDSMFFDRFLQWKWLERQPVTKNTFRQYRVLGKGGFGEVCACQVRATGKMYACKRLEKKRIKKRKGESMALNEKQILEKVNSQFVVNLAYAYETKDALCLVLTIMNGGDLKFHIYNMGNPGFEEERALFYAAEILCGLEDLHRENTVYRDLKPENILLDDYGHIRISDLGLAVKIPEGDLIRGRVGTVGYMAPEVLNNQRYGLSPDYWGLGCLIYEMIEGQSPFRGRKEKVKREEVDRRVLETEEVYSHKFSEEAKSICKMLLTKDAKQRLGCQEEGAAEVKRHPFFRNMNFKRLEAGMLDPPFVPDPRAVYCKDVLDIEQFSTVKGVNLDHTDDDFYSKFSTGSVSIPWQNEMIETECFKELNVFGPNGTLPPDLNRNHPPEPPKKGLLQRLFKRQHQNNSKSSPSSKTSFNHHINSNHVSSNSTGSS", "details": "H929 live cell", "method_in_brief": "(§1)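 KiNativ profiling in live H929 cells; single concentration 10 μM, n=2; IC50 from MS measurement.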"}, "[2]": {"biological_target": "PDK1 (Homo sapiens (Human), UniProt O15530)", "sequence (O15530 whole entry)": "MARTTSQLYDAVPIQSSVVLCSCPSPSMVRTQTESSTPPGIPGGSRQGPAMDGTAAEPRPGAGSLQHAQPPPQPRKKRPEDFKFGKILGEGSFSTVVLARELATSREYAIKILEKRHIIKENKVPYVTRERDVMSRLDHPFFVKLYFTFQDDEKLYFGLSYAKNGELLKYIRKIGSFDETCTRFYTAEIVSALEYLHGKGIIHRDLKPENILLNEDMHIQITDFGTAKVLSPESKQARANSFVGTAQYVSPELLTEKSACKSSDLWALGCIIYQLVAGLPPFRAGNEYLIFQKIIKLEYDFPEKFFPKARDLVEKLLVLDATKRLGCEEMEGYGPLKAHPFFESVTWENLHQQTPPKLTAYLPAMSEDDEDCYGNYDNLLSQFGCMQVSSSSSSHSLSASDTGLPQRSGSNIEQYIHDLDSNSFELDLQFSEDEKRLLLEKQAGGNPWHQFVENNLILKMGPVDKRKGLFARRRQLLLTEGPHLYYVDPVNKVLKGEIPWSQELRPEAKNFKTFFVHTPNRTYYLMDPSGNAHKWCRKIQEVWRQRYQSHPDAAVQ", "details": "H929 live cell", "method_in_brief": "(§2)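 Live H929 cells, compound 10 μM, duplicate; KiNativ probe profiling; IC50 by MS.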"}, "[3]": {"biological_target": "MAP2K2 (Homo sapiens (Human), UniProt P36507)", "sequence (P36507 whole entry)": "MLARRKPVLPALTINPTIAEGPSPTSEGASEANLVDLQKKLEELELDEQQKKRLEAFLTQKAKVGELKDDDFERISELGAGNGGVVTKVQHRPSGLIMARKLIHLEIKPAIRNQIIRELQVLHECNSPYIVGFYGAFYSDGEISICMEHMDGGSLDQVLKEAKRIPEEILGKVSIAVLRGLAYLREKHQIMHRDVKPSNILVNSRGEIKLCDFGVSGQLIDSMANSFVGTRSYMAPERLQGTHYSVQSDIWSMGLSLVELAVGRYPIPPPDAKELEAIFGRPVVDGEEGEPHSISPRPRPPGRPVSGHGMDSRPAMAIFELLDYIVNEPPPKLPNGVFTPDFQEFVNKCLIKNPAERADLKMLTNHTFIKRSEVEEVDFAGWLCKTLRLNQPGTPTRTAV", "details": "H929 live cell", "method_in_brief": "as §1"}, "[4]": {"biological_target": "SGK2 (Homo sapiens (Human), UniProt Q9HBY8)", "sequence (Q9HBY8 whole entry)": "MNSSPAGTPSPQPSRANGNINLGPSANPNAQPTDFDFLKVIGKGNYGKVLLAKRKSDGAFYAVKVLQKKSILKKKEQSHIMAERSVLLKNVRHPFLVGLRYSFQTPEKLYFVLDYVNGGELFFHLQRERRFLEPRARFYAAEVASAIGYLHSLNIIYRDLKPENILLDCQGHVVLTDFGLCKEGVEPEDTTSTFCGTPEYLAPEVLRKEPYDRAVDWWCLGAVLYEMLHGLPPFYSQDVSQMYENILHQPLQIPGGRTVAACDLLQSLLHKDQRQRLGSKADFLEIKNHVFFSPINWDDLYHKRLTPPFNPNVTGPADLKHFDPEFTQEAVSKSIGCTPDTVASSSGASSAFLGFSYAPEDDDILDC", "details": "H929 live cell", "method_in_brief": "as §2"}, "[5]": {"biological_target": "KHS2 (Homo sapiens (Human), UniProt Q8IVH8)", "sequence (Q8IVH8 whole entry)": "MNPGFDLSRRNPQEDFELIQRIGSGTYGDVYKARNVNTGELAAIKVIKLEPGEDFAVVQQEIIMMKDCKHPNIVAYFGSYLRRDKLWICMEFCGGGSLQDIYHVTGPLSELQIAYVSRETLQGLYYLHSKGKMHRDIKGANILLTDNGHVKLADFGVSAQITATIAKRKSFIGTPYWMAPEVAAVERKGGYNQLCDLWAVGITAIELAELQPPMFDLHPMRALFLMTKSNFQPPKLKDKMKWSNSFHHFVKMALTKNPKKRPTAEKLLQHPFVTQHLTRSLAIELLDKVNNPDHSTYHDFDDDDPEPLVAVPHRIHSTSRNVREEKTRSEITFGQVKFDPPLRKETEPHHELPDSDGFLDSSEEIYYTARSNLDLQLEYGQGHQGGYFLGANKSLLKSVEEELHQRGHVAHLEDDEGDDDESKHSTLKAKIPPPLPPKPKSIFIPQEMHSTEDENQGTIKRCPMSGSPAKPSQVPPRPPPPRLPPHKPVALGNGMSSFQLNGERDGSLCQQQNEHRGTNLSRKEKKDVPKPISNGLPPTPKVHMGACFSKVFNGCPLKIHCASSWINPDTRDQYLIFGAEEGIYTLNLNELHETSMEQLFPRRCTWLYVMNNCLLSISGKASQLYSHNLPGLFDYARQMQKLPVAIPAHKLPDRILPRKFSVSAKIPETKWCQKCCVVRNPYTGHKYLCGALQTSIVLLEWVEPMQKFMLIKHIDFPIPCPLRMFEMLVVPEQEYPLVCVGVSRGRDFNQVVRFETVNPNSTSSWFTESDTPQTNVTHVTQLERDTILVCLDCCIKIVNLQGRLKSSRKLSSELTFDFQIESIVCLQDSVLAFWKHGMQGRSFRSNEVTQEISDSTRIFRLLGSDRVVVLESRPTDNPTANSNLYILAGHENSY", "details": "H929 live cell", "method_in_brief": "as §1"}, "[6]": {"biological_target": "ARAF (Homo sapiens (Human), UniProt P10398)", "sequence (P10398 whole entry)": "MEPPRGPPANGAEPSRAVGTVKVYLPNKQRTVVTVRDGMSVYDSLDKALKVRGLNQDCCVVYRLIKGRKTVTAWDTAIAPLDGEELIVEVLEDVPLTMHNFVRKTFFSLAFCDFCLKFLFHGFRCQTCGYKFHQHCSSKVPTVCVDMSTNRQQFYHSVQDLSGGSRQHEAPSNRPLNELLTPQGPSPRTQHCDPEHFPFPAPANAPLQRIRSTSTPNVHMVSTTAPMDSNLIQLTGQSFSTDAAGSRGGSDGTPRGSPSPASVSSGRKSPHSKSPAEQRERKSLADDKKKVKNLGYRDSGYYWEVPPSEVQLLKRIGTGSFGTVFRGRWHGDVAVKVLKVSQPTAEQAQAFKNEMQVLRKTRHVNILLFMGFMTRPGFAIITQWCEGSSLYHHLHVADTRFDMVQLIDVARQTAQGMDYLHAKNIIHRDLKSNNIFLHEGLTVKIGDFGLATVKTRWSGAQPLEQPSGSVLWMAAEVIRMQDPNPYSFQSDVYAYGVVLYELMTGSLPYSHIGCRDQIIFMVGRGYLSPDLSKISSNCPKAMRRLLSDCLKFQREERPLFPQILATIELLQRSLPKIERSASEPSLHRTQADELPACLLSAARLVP", "details": "H929 live cell", "method_in_brief": "as §2"}, "[7]": {"biological_target": "CK1g1 (Homo sapiens (Human), UniProt Q9HCP0)", "sequence (Q9HCP0 whole entry)": "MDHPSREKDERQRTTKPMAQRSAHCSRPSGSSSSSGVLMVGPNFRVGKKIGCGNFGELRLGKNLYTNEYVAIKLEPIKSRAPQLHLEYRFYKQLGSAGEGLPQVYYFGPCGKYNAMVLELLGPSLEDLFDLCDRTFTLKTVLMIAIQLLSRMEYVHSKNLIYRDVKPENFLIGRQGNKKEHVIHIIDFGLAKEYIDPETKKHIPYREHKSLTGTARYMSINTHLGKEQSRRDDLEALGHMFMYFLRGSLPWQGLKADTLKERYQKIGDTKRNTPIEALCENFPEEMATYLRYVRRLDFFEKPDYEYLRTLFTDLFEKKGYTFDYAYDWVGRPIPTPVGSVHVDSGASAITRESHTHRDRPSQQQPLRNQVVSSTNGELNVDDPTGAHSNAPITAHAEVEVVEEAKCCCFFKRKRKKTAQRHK", "details": "H929 live cell", "method_in_brief": "as §1"}, "[8]": {"system": "CK1d, CK1e", "details": "H929 live cell; for % inhibition (range): 10 μM", "method_in_brief": "as §1"}, "[9]": {"system": "AKT2, AKT3", "details": "H929 live cell; for % inhibition (range): 10 μM", "method_in_brief": "as §2"}, "[10]": {"biological_target": "RIPK3 (Homo sapiens (Human), UniProt Q9Y572)", "sequence (Q9Y572 whole entry)": "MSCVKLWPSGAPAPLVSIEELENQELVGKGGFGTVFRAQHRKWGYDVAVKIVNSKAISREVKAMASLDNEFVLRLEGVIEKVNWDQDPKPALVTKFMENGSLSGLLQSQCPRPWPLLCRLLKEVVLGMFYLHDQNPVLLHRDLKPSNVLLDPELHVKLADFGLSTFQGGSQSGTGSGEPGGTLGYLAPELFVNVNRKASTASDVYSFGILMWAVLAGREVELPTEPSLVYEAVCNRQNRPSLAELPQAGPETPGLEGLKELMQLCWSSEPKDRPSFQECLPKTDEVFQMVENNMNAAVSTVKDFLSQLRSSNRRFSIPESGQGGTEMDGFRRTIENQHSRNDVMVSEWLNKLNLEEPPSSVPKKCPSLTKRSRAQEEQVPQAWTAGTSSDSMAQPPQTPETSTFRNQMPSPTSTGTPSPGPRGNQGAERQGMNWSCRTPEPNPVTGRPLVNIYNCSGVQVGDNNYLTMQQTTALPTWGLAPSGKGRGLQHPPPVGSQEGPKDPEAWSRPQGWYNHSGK", "details": "H929 live cell", "method_in_brief": "as §2"}}, "note": "Read-outs that look alike come from different tables or passages of the source.", "data": [{"smiles": "Nc1ncc(-c2cccc([N+](=O)[O-])c2F)cc1-c1ccc2c(c1)CCNC2=O", "note": "[Compound I-9, 6-(2-amino-5-(2-fluoro-3-nitrophenyl)pyridin-3-yl)-3,4-dihydroisoquinolin-1(2H)-one]", "values": [{"measurement": "inhibition at 10 µM", "setting": "[1]; read-out: % inhibition (range)", "value": 0, "unit": "%"}, {"measurement": "inhibition at 10 µM", "setting": "[1]; read-out: inhibition (10 μM)", "value": 19.6, "unit": "%"}, {"measurement": "inhibition at 10 µM", "setting": "[2]; read-out: % inhibition (range)", "value": 0, "unit": "%"}, {"measurement": "inhibition at 10 µM", "setting": "[2]; read-out: inhibition (10 μM)", "value": 28.1, "unit": "%"}, {"measurement": "inhibition at 10 µM", "setting": "[3]; read-out: % inhibition (range)", "value": 0, "unit": "%"}, {"measurement": "inhibition at 10 µM", "setting": "[3]; read-out: inhibition (10 μM)", "value": -8.7, "unit": "%"}, {"measurement": "inhibition at 10 µM", "setting": "[4]; read-out: % inhibition (range)", "value": 0, "unit": "%"}, {"measurement": "inhibition at 10 µM", "setting": "[4]; read-out: inhibition (10 μM)", "value": -5.4, "unit": "%"}, {"measurement": "inhibition at 10 µM", "setting": "[5]; read-out: % inhibition (range)", "value": "50 to 75", "unit": "%"}, {"measurement": "inhibition at 10 µM", "setting": "[5]; read-out: inhibition (10 μM)", "value": 69.5, "unit": "%"}, {"measurement": "inhibition at 10 µM", "setting": "[6]; read-out: % inhibition (range)", "value": 0, "unit": "%"}, {"measurement": "inhibition at 10 µM", "setting": "[6]; read-out: inhibition (10 μM)", "value": 9.5, "unit": "%"}, {"measurement": "inhibition at 10 µM", "setting": "[7]; read-out: % inhibition (range)", "value": "75 to 90", "unit": "%"}, {"measurement": "inhibition at 10 µM", "setting": "[7]; read-out: inhibition (10 μM)", "value": "> 85", "unit": "%"}, {"measurement": "% inhibition (range)", "setting": "[8]", "value": ">90", "unit": "%"}, {"measurement": "inhibition (10 μM)", "setting": "[8]", "value": ">95", "unit": "%"}, {"measurement": "% inhibition (range)", "setting": "[9]", "value": 0.0, "unit": "%"}, {"measurement": "inhibition (10 μM)", "setting": "[9]", "value": "−1.3", "unit": "%"}, {"measurement": "inhibition at 10 µM", "setting": "[10]; read-out: % inhibition (range)", "value": 0, "unit": "%"}, {"measurement": "inhibition at 10 µM", "setting": "[10]; read-out: inhibition (10 μM)", "value": -33.4, "unit": "%"}]}, {"smiles": "Nc1ncc(-c2cccc3ncsc23)cc1-c1ccc2c(c1)CCNC2=O", "note": "[Compound I-13, 6-(2-amino-5-(benzo[d]thiazol-7-yl)pyridin-3-yl)-3,4-dihydroisoquinolin-1(2H)-one]", "values": [{"measurement": "inhibition at 10 µM", "setting": "[1]; read-out: % inhibition (range)", "value": 0, "unit": "%"}, {"measurement": "inhibition at 10 µM", "setting": "[1]; read-out: inhibition (10 μM)", "value": -12, "unit": "%"}, {"measurement": "inhibition at 10 µM", "setting": "[2]; read-out: % inhibition (range)", "value": 0, "unit": "%"}, {"measurement": "inhibition at 10 µM", "setting": "[2]; read-out: inhibition (10 μM)", "value": 17.5, "unit": "%"}, {"measurement": "inhibition at 10 µM", "setting": "[3]; read-out: % inhibition (range)", "value": 0, "unit": "%"}, {"measurement": "inhibition at 10 µM", "setting": "[3]; read-out: inhibition (10 μM)", "value": -36.7, "unit": "%"}, {"measurement": "inhibition at 10 µM", "setting": "[4]; read-out: % inhibition (range)", "value": 0, "unit": "%"}, {"measurement": "inhibition at 10 µM", "setting": "[4]; read-out: inhibition (10 μM)", "value": 22.1, "unit": "%"}, {"measurement": "inhibition at 10 µM", "setting": "[5]; read-out: % inhibition (range)", "value": 0, "unit": "%"}, {"measurement": "inhibition at 10 µM", "setting": "[5]; read-out: inhibition (10 μM)", "value": 1.7, "unit": "%"}, {"measurement": "inhibition at 10 µM", "setting": "[6]; read-out: % inhibition (range)", "value": 0, "unit": "%"}, {"measurement": "inhibition at 10 µM", "setting": "[6]; read-out: inhibition (10 μM)", "value": 16.7, "unit": "%"}, {"measurement": "inhibition at 10 µM", "setting": "[7]; read-out: % inhibition (range)", "value": "75 to 90", "unit": "%"}, {"measurement": "inhibition at 10 µM", "setting": "[7]; read-out: inhibition (10 μM)", "value": "> 85", "unit": "%"}, {"measurement": "inhibition (10 μM)", "setting": "[8]", "value": 58.9, "unit": "%"}, {"measurement": "% inhibition (range)", "setting": "[9]", "value": 0.0, "unit": "%"}, {"measurement": "inhibition (10 μM)", "setting": "[9]", "value": 19.0, "unit": "%"}, {"measurement": "inhibition at 10 µM", "setting": "[10]; read-out: % inhibition (range)", "value": 0, "unit": "%"}, {"measurement": "inhibition at 10 µM", "setting": "[10]; read-out: inhibition (10 μM)", "value": -25.9, "unit": "%"}]}, {"smiles": "CN(C1CC1)S(=O)(=O)c1ccc(-c2cnc(N)c(-c3ccc4c(c3)CCNC4=O)c2)c(F)c1", "note": "[Compound I-28, 4-(6-amino-5-(1-oxo-1,2,3,4-tetrahydroisoquinolin-6-yl)pyridin-3-yl)-N-cyclopropyl-3-fluoro-N-methylbenzenesulfonamide]", "values": [{"measurement": "inhibition at 10 µM", "setting": "[1]; read-out: % inhibition (range)", "value": 0, "unit": "%"}, {"measurement": "inhibition at 10 µM", "setting": "[1]; read-out: inhibition (10 μM)", "value": 10.7, "unit": "%"}, {"measurement": "inhibition at 10 µM", "setting": "[2]; read-out: % inhibition (range)", "value": 0, "unit": "%"}, {"measurement": "inhibition at 10 µM", "setting": "[2]; read-out: inhibition (10 μM)", "value": 5.9, "unit": "%"}, {"measurement": "inhibition at 10 µM", "setting": "[3]; read-out: % inhibition (range)", "value": 0, "unit": "%"}, {"measurement": "inhibition at 10 µM", "setting": "[3]; read-out: inhibition (10 μM)", "value": -23.7, "unit": "%"}, {"measurement": "inhibition at 10 µM", "setting": "[4]; read-out: % inhibition (range)", "value": 0, "unit": "%"}, {"measurement": "inhibition at 10 µM", "setting": "[4]; read-out: inhibition (10 μM)", "value": -30.3, "unit": "%"}, {"measurement": "inhibition at 10 µM", "setting": "[5]; read-out: % inhibition (range)", "value": "50 to 75", "unit": "%"}, {"measurement": "inhibition at 10 µM", "setting": "[5]; read-out: inhibition (10 μM)", "value": 68.3, "unit": "%"}, {"measurement": "inhibition at 10 µM", "setting": "[6]; read-out: % inhibition (range)", "value": 0, "unit": "%"}, {"measurement": "inhibition at 10 µM", "setting": "[6]; read-out: inhibition (10 μM)", "value": 8, "unit": "%"}, {"measurement": "inhibition at 10 µM", "setting": "[7]; read-out: % inhibition (range)", "value": "75 to 90", "unit": "%"}, {"measurement": "inhibition at 10 µM", "setting": "[7]; read-out: inhibition (10 μM)", "value": "> 85", "unit": "%"}, {"measurement": "% inhibition (range)", "setting": "[8]", "value": "50-75%"}, {"measurement": "inhibition (10 μM)", "setting": "[8]", "value": 68.2, "unit": "%"}, {"measurement": "% inhibition (range)", "setting": "[9]", "value": 0.0, "unit": "%"}, {"measurement": "inhibition (10 μM)", "setting": "[9]", "value": 14.9, "unit": "%"}, {"measurement": "inhibition at 10 µM", "setting": "[10]; read-out: inhibition (10 μM)", "value": -121, "unit": "%"}]}]}
